# What was measured:
# [1] = system: AMPA receptor; assay: In vivo electrophysiology: field EPSP amplitude in the dentate gyrus of anesthetized animals; set-up: species or system rat
# Method: A. Enhancement of AMPA Receptor Function In Vivo.
# Synaptic responses mediated by AMPA receptors are increased according to the method of the invention, using the compounds described herein.
# (§1) The electrophysiological effects of the invention compounds were tested in vivo in anesthetized animals according to the following procedures. Animals are maintained under anesthesia by phenobarbital administered using a Hamilton syringe pump. Stimulating and recording electrodes are inserted into the perforant path and dentate gyrus of the hippocampus, respectively. Once electrodes are implanted, a stable baseline of evoked responses are elicited using single monophasic pulses (100 μs pulse duration) delivered at 3/min to the stimulating electrode. Field EPSPs are monitored until a stable baseline is achieved (about 20-30 min), after which a solution of test compound is injected intraperitoneally and evoked field potentials are recorded. Evoked potentials were recorded for approximately 2 h following drug administration or until the amplitude of the field EPSP returns to baseline. In the latter instance, it is common that an iv administration is also carried out with an appropriate dose of the same test compound. Invention compounds were assayed in the in vivo electrophysiology assay described above and data for representative test compounds is shown in column 1 in Table 1.
# The electrophysiological effects of invention compounds were tested in vivo in anesthetized animals according to the following procedures.
# as §1, with “Animals” for “The electrophysiological effects of the invention compounds were tested in vivo in anesthetized animals according to the following procedures. Animals”, “are” for “were”, “compound.” for “compound. Invention compounds were assayed in the in vivo electrophysiology assay described above and data for representative test compounds is shown in column 1 in Table 1.”
# [2] = system: d-amphetamine stimulated locomotion in mice; assay: Inhibition of d-amphetamine stimulated locomotion; type: in vivo; settings: Mus musculus, ip, 18 mpk i.p., d-amphetamine 2 mg/kg
# Method: B. Behavioral Testing: Inhibition of d-Amphetamine Stimulated Locomotion
# The ability of the invention compounds to inhibit d-Amphetamine stimulated locomotor activity was assayed according to the following procedure. Male CD1 mice, 25-30 gm body weight, were brought into the experimental room and allowed at least 30 min of acclimation. Each mouse was placed into the testing enclosure with an infrared beam array that automatically monitors the animal's activity. Mice were habituated in the testing enclosure for 20 min, and then returned to their home cage. Mice were dosed intraperitoneally with test compound in appropriate vehicle 5 minutes before d-Amphetamine injection (2 mpk). Ten minutes after d-Amphetamine injection, mice were tested for locomotor activity for a total of […]. The data was computer collected and expressed as “arbitrary movement units.” All data were analyzed by comparing the groups treated with the test compound to the vehicle control group. The data shown is the % inhibition of hyperactivity induced by acute administration of 2 mg/kg d-amphetamine in mice. The compounds tested produced a statistically significant inhibition of d-amphetamine stimulated locomotion.
# Male CD1 mice, 25-30 gm body weight, were brought into the experimental room and allowed at least 30 min of acclimation. Each mouse was placed into the testing enclosure with an infrared beam array that automatically monitors the animal's activity. Mice were habituated in the testing enclosure for 20 min, and then returned to their home cage. Mice were dosed intraperitoneally with test compound in appropriate vehicle 5 minutes before d-Amphetamine injection. Ten minutes after d-Amphetamine injection, mice were tested for locomotor activity for a total of 15 minutes. The data was computer collected and expressed as “arbitrary movement units.” All data were analyzed by comparing the groups treated with the test compound to the vehicle control group.
# [3] = dosed intravenously (footnote 3)
Structure (SMILES),melting point [°C],In vivo Electrophysiology: % increase in the amplitude of the field EPSP in the dentate gyrus of rat ([1]; 10mpk i.p.) [%],other results
"CCN(C(=O)c1ccc2nonc2c1)C1CCCCC1 [Example 18, N-Cyclohexyl-N-ethyl-[2,1,3]-benzoxadiazole-5-carboxamide]",51 to 52,–,–
"CN(C(=O)c1ccc2nonc2c1)C1CCCC(F)(F)C1 (stereo not shown) [Example 62, N-Methyl-N-(3,3-difluorocyclohexyl)-[2,1,3]-benzoxadiazole-5-carboxamide]",119 to 120,–,–
"CN(C(=O)c1ccc2nonc2c1)C1CCC1 [Example 6, N-Cyclobutyl-N-methyl-[2,1,3]-benzoxadiazole-5-carboxamide]",51 to 52,10,inhibition in vivo at 18 mg/kg [2]: 37%
"CN(C(=O)c1ccc2nonc2c1)C1CCCCC1(F)F (stereo not shown) [Example 65, N-Methyl-N-(2,2-difluorocyclohexyl)-[2,1,3]-benzoxadiazole-5-carboxamide]",101 to 102,–,–
"CN(C(=O)c1ccc2nccnc2c1)C1CCOCC1 [Example 36, N-Methyl-N-tetrahydro-2H-pyran-4-ylquinoxaline-6-carboxamide]",130 to 131,–,"In vivo Electrophysiology: % increase in the amplitude of the field EPSP in the dentate gyrus of rat [1, 3]: 5%^3"
"O=C(c1ccc2nccnc2c1)N1CCCCC1 [CX516, 1-(quinoxalin-6-ylcarbonyl)piperidine, reference compound]",–,–,"increase in amplitude of the field EPSP ([1]; rat dentate gyrus, 50 mg/kg i.p.): 9%"
"O=C(NC1CCOC(O)C1)c1ccc2nonc2c1 (stereo not shown) [Example 66, N-(2-Hydroxytetrahydro-2H-pyran-4-yl)-[2,1,3]-benzoxadiazole-5-carboxamide]",91 to 92,–,–
"CN(C(=O)c1ccc2nonc2c1)C1CCSCC1 [Example 33, N-Methyl-N-(tetrahydro-2H-thiopyran-4-yl)-[2,1,3]-benzoxadiazole-5-carboxamide]",–,–,"In vivo Electrophysiology: % increase in the amplitude of the field EPSP in the dentate gyrus of rat [1, 3]: 16%^3"
"O=C(c1ccc2nonc2c1)N(C1CCOCC1)C1CC1 [Example 24, N-Cyclopropyl-N-tetrahydro-2H-pyran-4-yl-[2,1,3]-benzoxadiazole-5-carboxamide]",108 to 109,–,–
"CN(C(=O)c1ccc2nonc2c1)C1CCCCC1 [Example 4, N-Cyclohexyl-N-methyl-[2,1,3]-benzoxadiazole-5-carboxamide]",134 to 135,17,inhibition in vivo at 18 mg/kg [2]: 80%
"CO[C@H]1CC[C@H](N(C)C(=S)c2ccc3nonc3c2)CC1 [Example 54, N-(trans-4-Methoxycyclohexyl)-N-methyl-[2,1,3]-benzoxadiazole-5-carbothioamide]",–,–,"In vivo Electrophysiology: % increase in the amplitude of the field EPSP in the dentate gyrus of rat [1, 3]: 18%^3"
"CN(Cc1ccccc1)C(=O)c1ccc2nonc2c1 [Example 20, N-Benzyl-N-methyl-[2,1,3]-benzoxadiazole-5-carboxamide]",105 to 106,–,–
"CN1CCC(N(C)C(=O)c2ccc3nonc3c2)CC1 [Example 28, N-Methyl-N-(1-methylpiperidin-4-yl)-[2,1,3]-benzoxadiazole-5-carboxamide]",> 260,–,–
"CCN(C(=O)c1ccc2nonc2c1)C1CCOCC1 [Example 17, N-Ethyl-N-tetrahydro-2H-pyran-4-yl-[2,1,3]-benzoxadiazole-5-carboxamide]",102 to 104,12,inhibition in vivo at 18 mg/kg [2]: 23%
"CN(C(=O)c1ccc2nonc2c1)C1CCOC(=O)C1 (stereo not shown) [Example 68, N-Methyl-N-(2-oxotetrahydro-2H-pyran-4-yl)-[2,1,3]-benzoxadiazole-5-carboxamide]",169 to 171,–,–
"CN(C(=O)c1ccc2nonc2c1)C1CCCC1 [Example 5, N-Cyclopentyl-N-methyl-[2,1,3]-benzoxadiazole-5-carboxamide]",110 to 111,15,–
"CN(C(=O)c1ccc2nonc2c1)C1CCOC(O)C1 (stereo not shown) [Example 69, N-(2-Hydroxytetrahydro-2H-pyran-4-yl)-N-methyl-[2,1,3]-benzoxadiazole-5-carboxamide]",< 90,–,–
"CN(C(=O)c1ccc2nonc2c1)[C@H]1CC[C@](C)(O)CC1 [Example 45, N-(trans-4-hydroxy-4-methylcyclohexyl)-N-methyl-[2,1,3]-benzoxadiazole-5-carboxamide]",175 to 176,19,inhibition in vivo at 18 mg/kg [2]: 122%
"CO[C@H]1CC[C@H](N(C)C(=O)c2ccc3nonc3c2)CC1 [Example 53, N-(trans-4-Methoxycyclohexyl)-N-methyl-[2,1,3]-benzoxadiazole-5-carboxamide]",–,17,inhibition in vivo at 18 mg/kg [2]: 94%
"CN(C(=O)c1ccc2nonc2c1)C1CCOCC1 [Example 12, N-Methyl-N-tetrahydro-2H-pyran-4-yl-[2,1,3]-benzoxadiazole-5-carboxamide]",–,20,inhibition in vivo at 18 mg/kg [2]: 66%
"CN(C(=O)c1ccc2nonc2c1)[C@H]1CC[C@@H](C#N)CC1 [Example 10, N-(cis-4-Cyanocyclohexyl)-N-methyl-[2,1,3]-benzoxadiazole-5-carboxamide]",222 to 223,–,–
"CN(C(=O)c1ccc2nonc2c1)[C@@H]1CCOC1 [Example 73, N-Methyl-N—(R)-tetrahydrofuran-3-yl-[2,1,3]-benzoxadiazole-5-carboxamide]",–,13,–
"O=C(NC1CCCOC1)c1ccc2nonc2c1 (stereo not shown) [Example 15, N-(Tetrahydro-2H-pyran-3-yl)-[2,1,3]-benzoxadiazole-5-carboxamide]",204 to 205,–,–
"CN(C(=O)c1ccc2nonc2c1)C1CCC(=O)CC1 [Example 37, N-Methyl-N-(4-oxocyclohexyl)-[2,1,3]-benzoxadiazole-5-carboxamide]",183 to 184,18,inhibition in vivo at 18 mg/kg [2]: 100%
"CN(C(=O)c1ccc2nonc2c1)C1CCN(C(=O)OC(C)(C)C)CC1 [Example 26, tert-Butyl-4-[([2,1,3]-benzoxadiazol-5-ylcarbonyl)(methyl)amino]piperidine-1-carboxylate]",98 to 100,–,–
"CN(C(=O)c1ccc2nonc2c1)[C@H]1CC[C@H](O)CC1 [Example 51, N-(4-trans-Hydroxycyclohexyl)-N-methyl-[2,1,3]-benzoxadiazole-5-carboxamide]",–,21,inhibition in vivo at 18 mg/kg [2]: 100%
"CN(C(=O)c1ccc2nonc2c1)[C@H]1CC[C@H](n2ncnn2)CC1 [Example 56, N-Methyl-N-[trans-4-(2H-tetrazol-2-yl)cyclohexyl]-[2,1,3]-benzoxadiazole-5-carboxamide]",–,19,–
"O=C(c1ccc2nonc2c1)N(CC(F)(F)F)C1CCOCC1 [Example 25, N-Tetrahydro-2H-pyran-4-yl-N-(2,2,2-trifluoroethyl)-[2,1,3]-benzoxadiazole-5-carboxamide]",134 to 135,–,"In vivo Electrophysiology: % increase in the amplitude of the field EPSP in the dentate gyrus of rat [1, 3]: 10%^3"
"CN(CC1CCCCC1)C(=O)c1ccc2nonc2c1 [Example 19, N-(Cyclohexylmethyl)-N-methyl-[2,1,3]-benzoxadiazole-5-carboxamide]",71 to 72,–,–
"CN(C(=O)c1ccc2nonc2c1)[C@H]1CC[C@H](C#N)CC1 [Example 11, N-(trans-4-cyanocyclohexyl)-N-methyl-[2,1,3]-benzoxadiazole-5-carboxamide]",–,12,–
